Assay [1] is described as follows: Anticancer activity against human Caco2 cells. The following applies: Caco-2. The class given is functional, cell-based.
A further assay concerns A-375. The assay is described as follows: Anticancer activity against human A375 cells. The assay is classed as functional, cell-based.
A short description of assay [2]: Anticancer activity against human MDA231 cells. The assay is classed as functional, cell-based. The conditions noted are these: MDA-MB-231.
A short description of assay [3]: Anticancer activity against human HCT116 cells. The assay is classed as functional, cell-based. The following applies: HCT-116.
Assay [4] can be described thus: Inhibition of Escherichia coli DnaG primase.

The IC50 is the concentration needed to halve the response being measured.

`COc1cc(/C=C/C(=O)NCCc2c[nH]c3ccc(O)cc23)ccc1O` [N-FERULOYL SEROTONIN] had a 50% inhibitory concentration (IC50) in assay [1] of 81 µM.

In the assay on A-375, `N[C@@H](CCC(=O)NNc1ccc(O)cc1)C(=O)O` [XANTHODERMINE] came in with an IC50 of 1.6 µM.

Consider `CCCC/C=C\N(NC(C)=O)C(=O)CCC1=CCOC1=O` [GERALCIN B], for which the IC50 in assay [2] stood at 5 µM.

For the compound `CCCC/C=C\N(NC(C)=O)C(=O)C(CO)/N=[N+](\[O-])CCCCCC` (stereo not given) [GERALCIN C], the IC50 in assay [3] is 0.8 µM; in assay [4], 700 µM.

The values are drawn from ChEMBL document CHEMBL3352016, “Natural hydrazine-containing compounds: Biosynthesis, isolation, biological activities and synthesis” (Bioorg Med Chem, 2014).
